Data as given in article PMC6102549, “Synthesis and Evaluation of C15 Triene Urushiol Derivatives as Potential Anticancer Agents and HDAC2 Inhibitor” (Molecules : A Journal of Synthetic Chemistry and Natural …, 2018).

Legend:
[1] = system: HepG2 cells; test: MTT assay, inhibition of proliferation of HepG2 cells; format: cell-based, human; conditions: for IC50: in vitro, 72 h
Description: (§1) As shown in Figure 1 and Table 1, compounds 1–16 were evaluated for their inhibitory effects on the proliferation of HepG2 and LO2 cells by MTT assay. […] It provided the experimental basis for the subsequent synthesis of attenuating and improving urushiol derivatives.
(§2) Detection of cell proliferation by MTT
(§3) MTT assay was used to determine the inhibitory effect of the sample on the proliferation of HepG2 cells. The tumor cells of logarithmic growth stage were inoculated with 3.5 * 103 / well in 96 well culture plate. 0.2 ml/pore system was cultured for 72 h with different concentrations of samples. Then 20μL(final concentration 0.5 mg / mL) of MTT were added to each pore for 4 h. The supernatant was carefully adsorbed, DMSO 0.15 mL was added to each pore, and oscillatory mixing was carried out. The absorbance (A) value at 490 nm wavelength was measured by enzyme labeling instrument. The inhibition rate of cell proliferation was calculated as follows: [(A value of negative control group-A value of blank group)-(A value of experimental group A value of blank group)] / (negative pair group A-A value of blank group) × 100.Statistical method. The statistical analysis was carried out by SPSS 17.0 statistical software. The measured data were described by x ±s, and the mean of the two samples was compared with t test (P < 0. 05).
(§4) Materials and methods: Main reagents and instruments […]
(§5) Full-range rainbow […]
(§6) The HepG2 cells were cultured in a saturated humidity incubator with 90% […]
(§7) Jiangsu Kaiji Biotechnology Co., Ltd. Main reagents and consumables Cell culture bottle […]
(§8) Cell proliferation measured by MTT
(§9) 1) the cells were digested and counted, the cell suspension was prepared by 3 x 10^4 /ml, and 100 micron L cell suspension was added to each hole in the 96 hole cell culture plate.
(§10) 2) 96 hole cell culture plate was placed in 37, 5%, CO2 culture box for 24 hours.
(§11) 3) use the medium to dilute the drug to the desired working fluid concentration, add 100 micron l per hole to the corresponding drug medium, and establish a negative control group and a positive control group (paclitaxel, 20ug/ml).
(§12) 4) 96 hole cell culture plate was placed at 37 ℃ and 5% CO2 incubator for 72 hours.
(§13) 5) 96 hole board for MTT staining, lambda =490nm, OD value determination; a. 20 μL MTT (5mg/ml) per hole was added to the culture box for 4 hours. b. discarding the supernatant, adding 150 μL DMSO for each hole, and gently mixing the […]
(§14) c. lambda =490nm, ELISA od readout per hole, the inhibition rate was calculated.
(§15) 6) calculate the inhibition rate of each group.The inhibition rate (%) = (negative control group OD value of experimental group / OD) negative control group OD x 100% […]
(§16) 7 check the machine and record the red fluorescence at the excitation wavelength of 488nm.
(§17) Detection of apoptosis by Annexin-V FITC/PI double staining
(§18) (1) inoculate the logarithmic growth cells into the six-hole plate. The next day, after the cells are adhered to the wall, according to the group . The culture medium containing medicine was added and the negative control group was set up at the same time
(§19) (2) after 72 hours of treatment, the cells were digested with 0.25% trypsin (excluding […]
(§20) (3) 5 × 10 ~ 5 cells were collected by PBS washing cells twice (centrifugation 2000rpm for 5

[2] = system: LO2 cells; test: MTT assay, toxic effect on normal liver cells LO2; format: cell-based; conditions: in vitro
Description: as §1, §2, §3, §4, §5, §6, §7, §8, §9, §10, §11, §12, §13, §14, §15, §16, §17, §18, §19, §20

[3] = system: HepG2 cells; test: PI single staining assay for cell cycle (flow cytometry); format: cell-based, human; conditions: for G1 (%) / G2 (%) / S (%): 72 h
Description: After the cells were tested with three different doses of Compound 1 (1, 3, and 12 μM), they were collected and detected by flow cytometry. […] Compared with the blank control group, the proportion of cells in G0/G1 phase of each dose of compound 1 increased gradually, but both the percentage of S stage cells and the proportion of cells in G2/M stage decreased to some extent. […]
Detection of cell cycle by PI single staining
1, the logarithmic growth phase were digested and inoculated into six well plates, the next day, after the cells adhered, according to the group set to join the corresponding drug containing medium, and the establishment of the negative control group; 2, after the action of 72h, the cells were digested with 0.25% pancreatin (not containing […]
3, 5 x 10^5 cells were collected by PBS scrubbing cells (centrifuge 2000rpm, 5min).
4, the single cell suspension prepared was fixed for 2 hours (or overnight) with a volume fraction of 70% ethanol, and stored at 4 ℃. Before washing, PBS was used to remove the fixative solution (if needed, cell suspension was filtered through 200 mesh mesh).
5 plus 100 mu L RNase A 37 ℃ water bath 30min;
6, adding 400 L PI dyeing and avoiding light 30min at 4 ℃.
7 check the machine and record the red fluorescence at the excitation wavelength of 488nm. […]

[4] = system: HepG2 cells; test: Annexin-V FITC/PI double staining for apoptosis (flow cytometry); format: cell-based, human; conditions: 72 h
Description: After treating HepG2 cells with three concentrations of compound 1 for 72 h, flow cytometry was used to detect the apoptosis rate changes. […]
as §17
(1) inoculate the logarithmic growth cells into the six-hole plate. The next day, after the cells are adhered to the wall, according to the group . […]
as §19
(§21) (3) 5 × 10 ~ 5 cells were collected by PBS washing cells twice (centrifugation 2000rpm for 5 […]
(4) adding 500 μ L Binding Buffer suspension cells;
(5) After adding 5 μ L Annexin V-FITC, adding 5 μ L Pi, mixing;
(6) at room temperature, no light, the reaction time was 5 ~ 15 min, and the apoptosis was detected by flow cytometry. […]

[5] = system: HepG2 cells; test: JC-1 staining assay of mitochondrial membrane potential; format: cell-based, human
Description: Detection of mitochondrial membrane potential by JC-1 staining
1inoculate the logarithmic growth cell digestion into the six-hole plate, the next day, after the cells adhered to the wall, according to the group set up to add the corresponding drug medium, and set up a negative control group at the same time;
(2) the cell concentration was collected and adjusted to 1 × 10^6 / ml by PBS washing (centrifugation 2000rpm for 5 min);
(3) 100 μ L 10 × Incubation Buffer and 900 μ L sterilized deionized water were diluted to 1 × Incubation buffer, and then preheated to 37 ℃;
(4) 500 μ L 1 × Incubation buffer was absorbed and 1 μ L JC-1 was added to prepare JC-1 […]
(5) the cells were incubated in a incubator containing CO 2 at 37 ℃ for 15 ~ 20 min with […]
(6) the cells were collected by centrifugation at room temperature for 5 min and washed twice with 1 × Incubation Buffer.
(7) resuspension cells of 500 μ L 1 × Incubation Buffer;
(8) on the computer test. […]

[6] = system: HepG2 cells; test: Calcium content detection (Fluo-3 probe, flow cytometry); format: cell-based, human; conditions: for Mean (calcium, Fluo-3 fluorescence): 72 h
Description: Calcium content detection
(1) inoculate the logarithmic growth cells into the six-hole plate. The next day, after the cells are adhered to the wall, according to the group . The culture medium containing medicine was added and the negative control group was set up at the same time.
as §19, §21
(4) adding 5 μ M Fluo-3 probe and mixing it to 37 degrees to avoid light for 30 min;

[7] = system: HDAC2; test: Western blot of HDAC2 expression in HepG2 cells; format: cell-based, human; conditions: versus hepatoma cell group, p < 0.05
Text: The total protein was extracted from the logarithmic growth phase of hepatoma HepG2 cell line, and the expression of HDAC2 was detected by Western blot method with urushiol derivative compound 1(see Figure 3). […] The mechanism was probably related to the inhibition of HDAC2 expression.
as §2, §3, §4

[8] = system: HepG2 cells; test: Morphological observation of HepG2 cells; format: cell-based, human; conditions: 6.25, 25 and 50 μM
Description: The mortality rate of HepG2 cells was increasing faster on higher concentration of compound 1. The inhibition of cell proliferation strengthened over time. […] The cells became round, the volume became smaller and the refraction decreased. When the cells were treated with high concentration of compound 1, the cells were suspended and shed. The cells no longer adhered to the wall. They gradually became round, and the membrane ruptured, shrank and finally lost vitality.

C/C=C\C=C\C/C=C\CCCCCCCc1ccc2c(C)cc(=O)oc2c1OB(O)c1ccccc1 [Compound 14]
IC50 ([1]; Homo sapiens, HepG2, 72 h): 78.7 µM
IC50 ([2]; Homo sapiens, L02, 72 h): > 200 µM

C/C=C\C=C\C/C=C\CCCCCCCc1ccc2c(C)cc(=O)oc2c1OB(O)c1ccncc1 [Compound 15]
IC50 ([1]; Homo sapiens, HepG2, 72 h): 67 µM
IC50 ([2]; Homo sapiens, L02, 72 h): > 200 µM

C/C=C\C=C\C/C=C\CCCCCCCc1ccc2c(C)cc(=O)oc2c1OB(O)c1ccnc(F)c1 [Compound 16]
IC50 ([1]; Homo sapiens, HepG2, 72 h): 151 µM
IC50 ([2]; Homo sapiens, L02, 72 h): > 200 µM

C/C=C\C=C\C/C=C\CCCCCCCc1ccc2c(C)cc(=O)oc2c1O [Compound 10, 8-hydroxy-4-methyl-7-((8Z,11E,13Z)-pentadeca-8,11,13-trien-1-yl)-2H-chro men-2-one]
IC50 ([1]; Homo sapiens, HepG2, 72 h): ~28 µM
IC50 [1]: 28.8 µM
IC50 ([2]; Homo sapiens, L02, 72 h): 180 µM
IC50 ([2]; 72 h): 198 µM

C/C=C\C=C\C/C=C\CCCCCCCc1cccc(O)c1NS(C)(=O)=O [Compound 9]
inhibitory activity on HepG2 cells proliferation (in words) [1]: strong
IC50 ([1]; Homo sapiens, HepG2, 72 h): 15 µM
IC50 ([2]; Homo sapiens, L02, 72 h): 121 µM

C/C=C\C=C\C/C=C\CCCCCCCc1cccc(O)c1O[Si](CCCS)(OC)OC [Compound 1]
inhibitory activity on HepG2 cells proliferation (in words) [1]: strong
IC50 ([1]; Homo sapiens, HepG2, 72 h): 7.89 µM
IC50 [1]: 7.88 µM
IC50 ([2]; Homo sapiens, L02, 72 h): 150 µM
IC50 ([2]; 72 h): 151 µM
G1 (%) ([3]; HepG2, 1 μM): 54.48%
G2 (%) ([3]; HepG2, 1 μM): 15.79%
S (%) ([3]; HepG2, 1 μM): 29.72%
G1 (%) ([3]; HepG2, 3 μM): 60.17%
G2 (%) ([3]; HepG2, 3 μM): 13.64%
S (%) ([3]; HepG2, 3 μM): 26.19%
G1 (%) ([3]; HepG2, 12 μM): 65.80%
G2 (%) ([3]; HepG2, 12 μM): 13.79%
S (%) ([3]; HepG2, 12 μM): 20.40%
effect on cell cycle (in words) ([3]; HepG2, 1, 3 and 12 μM): block cells in G0/G1 phase
Apoptosis (%) ([4]; HepG2, 1 μm): 15.73%
LL (%) ([4]; HepG2, 1 μm): 82.71%
LR (%) ([4]; HepG2, 1 μm): 9.38%
UL (%) ([4]; HepG2, 1 μm): 1.56%
UR (%) ([4]; HepG2, 1 μm): 6.35%
Apoptosis (%) ([4]; HepG2, 3 μm): 32.60%
LL (%) ([4]; HepG2, 3 μm): 67.33%
LR (%) ([4]; HepG2, 3 μm): 16.42%
UL (%) ([4]; HepG2, 3 μm): 0.07%
UR (%) ([4]; HepG2, 3 μm): 16.18%
Apoptosis (%) ([4]; HepG2, 12 μm): 47.87%
LL (%) ([4]; HepG2, 12 μm): 48.91%
LR (%) ([4]; HepG2, 12 μm): 37.68%
UL (%) ([4]; HepG2, 12 μm): 3.24%
UR (%) ([4]; HepG2, 12 μm): 10.19%
UR % Gated ([5]; HepG2, JC-1, 12 μM): 46.18%
Green Fluorescence (%) (LR % gated) ([5]; HepG2, JC-1, 1 μm): 16.72%
Green Fluorescence (%) (LR % gated) ([5]; HepG2, JC-1, 3 μm): 28.14%
Green Fluorescence (%) (LR % gated) ([5]; HepG2, JC-1, 12 μm): 53.82%
Mean (calcium, Fluo-3 fluorescence) ([6]; HepG2, 1 μm): 65.01
Mean (calcium, Fluo-3 fluorescence) ([6]; HepG2, 3 μm): 94.39
Mean (calcium, Fluo-3 fluorescence) ([6]; HepG2, 12 μm): 136.80
intracellular calcium concentration (in words) ([6]; HepG2, compared with blank control group): increased
expression of HDAC2 protein (in words) [7]: significantly lower
proliferation of HepG2 cells by morphological observation (in words) [8]: gradually inhibited
